Drawing on ChEMBL document CHEMBL1138674, “Validation of automated docking programs for docking and database screening against RNA drug targets” (J Med Chem, 2004), this text covers Kd for 14 compounds.

Usually Kd stands for the free concentration of one partner at which half of the binding sites on the other are occupied at equilibrium, for simple one-to-one binding.

A short description of the data set: Dissociation constant of the compound. In kind it is physicochemical.
Consider `N=C(N)NCCC[C@H](N)C(=O)O` (stereo in doubt; form 1) [ARGININE], for which binding was put at a Kd of 60 µM. The result for `NC[C@@H]1O[C@H](O[C@H]2[C@@H](O)[C@H](O[C@@H]3[C@@H](O)[C@H](N)C[C@H](N)[C@H]3O[C@H]3O[C@H](CN)[C@@H](O)[C@H](O)[C@H]3N)O[C@@H]2CO)[C@H](N)[C@@H](O)[C@@H]1O` (stereo in doubt; form 1) [FRAMYCETIN] reads 1 µM; that for `N=C(N)NCCC[C@H](N)C(=O)O` (stereo in doubt; form 2) [ARGININE], 1000 µM; that for `NC[C@@H]1O[C@H](O[C@H]2[C@@H](O)[C@H](O[C@@H]3[C@@H](O)[C@H](N)C[C@H](N)[C@H]3O[C@H]3O[C@H](CN)[C@@H](O)[C@H](O)[C@H]3N)O[C@@H]2CO)[C@H](N)[C@@H](O)[C@@H]1O` (stereo in doubt; form 2) [FRAMYCETIN], 0.1 µM. The result for `CC(=O)c1ccc2c(c1)N(CCCN(C)C)c1ccccc1S2` [ACEPROMAZINE] reads 0.1 µM. With `Nc1ncnc2c1ncn2[C@@H]1O[C@H](COP(=O)(O)O)[C@@H](O)[C@H]1O` [ADENOSINE PHOSPHATE] the figure was 2.7 µM; with `O=C(O)CCCC[C@@H]1SC[C@@H]2NC(=O)N[C@@H]21` [BIOTIN], 6 µM. Compound `NC(=O)NCCC[C@H](N)C(=O)O` [L-CITRULLINE] gave a Kd of 68 µM. With `NC[C@H]1O[C@H](O[C@H]2[C@H](O)[C@@H](O)[C@H](N)C[C@@H]2N)[C@H](N)[C@@H](O)[C@@H]1O` [NEAMINE] the figure was 1 µM. `NC[C@@H]1O[C@H](O[C@H]2[C@@H](O)[C@H](O[C@@H]3[C@@H](O)[C@H](N)C[C@H](N)[C@H]3O[C@H]3O[C@H](CO)[C@@H](O)[C@H](O)[C@H]3N)O[C@@H]2CO)[C@H](N)[C@@H](O)[C@@H]1O` [PAROMOMYCIN] gave a Kd of 0.2 µM. The result for `Cc1cc2nc3c(=O)[nH]c(=O)nc-3n(C[C@H](O)[C@H](O)[C@H](O)COP(=O)(O)O)c2cc1C` [RIBOFLAVIN 5'-PHOSPHATE] reads 0.5 µM. The compound `Cn1c(=O)c2[nH]cnc2n(C)c1=O` [THEOPHYLLINE] showed a Kd of 0.4 µM.

Compound `NC[C@H]1O[C@H](O[C@H]2[C@H](O)[C@@H](O[C@H]3O[C@H](CO)[C@@H](O)[C@H](N)[C@H]3O)[C@H](N)C[C@@H]2N)[C@H](N)C[C@@H]1O` [TOBRAMYCIN] returned a Kd of 0.0009 µM. With GENTAMICIN the figure was 0.01 µM.
